Values of other authors in patent US20140004176A1, “DELIVERY OF TREATMENTS TRANSDERMALLY FOR FUNGAL INFECTIONS AND OTHER INDICATIONS” (Strategic Science & Techologies, priority 2010, published 2014).

In the case of C[C@@H](c1ncncc1F)[C@](O)(Cn1cncn1)c1ccc(F)cc1F [voriconazole], the pKa is given as 1.76.
